“And” between values parts separate entries of the source, which are not always exact repeats. Identical values can stand only once.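 These data come from cells grown in 96-well plates and exposed to compound for 48 hours at five concentrations. Here, GI50 denotes the concentration required for 50% inhibition of growth. At the TGI there is no net growth.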
How the values were obtained:
Assay in all cases: DTP human tumour cell line panel, 48 h
[1] = test system: A498 renal
[2] = test system: HL-60(TB) leukemia
[3] = test system: HT29 colon
[4] = test system: M14 melanoma
[5] = test system: MCF7 breast
[6] = test system: OVCAR-8 ovarian
[7] = test system: RPMI-8226 leukemia
[8] = test system: SK-MEL-28 melanoma
[9] = test system: SNB-75 CNS
[10] = test system: TK-10 renal

Compound | GI50 [1] | TGI [1] | GI50 [2] | TGI [2] | GI50 [3] | TGI [3] | GI50 [4] | TGI [4] | GI50 [5] | TGI [5] | GI50 [6] | TGI [6] | GI50 [7] | TGI [7] | GI50 [8] | TGI [8] | GI50 [9] | TGI [9] | GI50 [10] | TGI [10]
Fc1ccc(/C=N/n2c(-c3ccc(F)c(Cl)c3)n[nH]c2=S)cc1 | 13.8 µM | 31 µM | 34.8 µM | > 100 µM | 35.3 µM | > 100 µM | 23.8 µM | 71.6 µM | 19.7 µM | 43 µM | 34.7 µM | > 100 µM | 19.8 µM | 43.2 µM | 42.1 µM | > 100 µM | 15.3 µM | 30.1 µM | 24.1 µM | 51 µM
Oc1c(-c2cc(C(F)(F)F)[nH]n2)cc(Cl)c(OCc2ccc(Cl)cc2)c1-c1ccc(Cl)c(C(F)(F)F)c1 | 0.0996 µM | 0.484 µM | 0.677 µM | 3.12 µM | 1.4 µM | 5.83 µM | 0.851 µM | 2.44 µM | 0.228 µM | 5.39 µM | 0.192 µM | 6.45 µM | 0.204 µM | 1.19 µM | 0.392 µM | 2.13 µM | 0.496 µM | 1.74 µM | 0.56 µM | 5.28 µM
c1cc(N2CCN(c3ccc(C4=NCCCN4)cc3)CC2)ccc1C1=NCCCN1 | 29.2 µM | > 100 µM |  | > 89 µM | > 53.2 µM | > 100 µM | > 100 µM | > 100 µM | > 57.5 µM | > 100 µM | > 95.7 µM | > 100 µM | 23.8 µM | > 100 µM | > 100 µM | > 100 µM | > 89.4 µM | > 100 µM | > 69.4 µM | > 100 µM
Cc1ccncc1C(N)=O | > 100 µM | > 100 µM | > 100 µM | > 100 µM | > 100 µM | > 100 µM | > 100 µM | > 100 µM | > 100 µM | > 100 µM | > 100 µM | > 100 µM | > 100 µM | > 100 µM | > 100 µM | > 100 µM | > 100 µM | > 100 µM | > 100 µM | > 100 µM
O=C1c2c(Br)sc(Br)c2[C@@H](NC(=O)C(F)(F)F)C1Br (some centres undefined) |  | 28.7 µM |  | 1.59 µM |  | 5.77 µM |  | 6.23 µM |  | 15.6 µM |  | 7.73 µM |  | 5.92 µM |  | 8.51 µM |  | 16.1 µM |  | 30.5 µM
COc1ccc(/C=C(/C)[N+](=O)[O-])cc1OC | 5.13 µM and 4.73 µM | 17.2 µM and 16.6 µM | 2.42 µM and 2.47 µM | 5.76 µM and 8.93 µM | 2.62 µM and 1.41 µM | 5.92 µM and 4.07 µM | 1.97 µM and 1.69 µM | 3.8 µM and 3.42 µM | 1.23 µM and 1.09 µM | 3.26 µM and 2.57 µM | 2.62 µM and 3.22 µM | 8 µM and 10 µM | 0.971 µM and 1.6 µM | 3.43 µM and 5.18 µM | 1.76 µM and 1.87 µM | 3.66 µM and 3.6 µM | 4.71 µM and 3.76 µM | 18 µM and 13.9 µM | 1.76 µM and 1.32 µM | 3.5 µM and 2.7 µM

Reference: PubChem BioAssay (NCI)
